Experimental data: US20020049173A1, “Alteration of cellular behavior by antisense modulation of mRNA processing” (priority 1999, published 2002)
In the oligonucleotide strings, read from the 5' end, every base follows the letter of its sugar. An asterisk marks phosphorothioate; unmarked linkages are phosphodiester. Other units and linkages are bracketed, terminal groups are in braces. A string of capitals states the bases alone. e = 2'-O-(2-methoxyethyl) (MOE); [5mC] = 5-methylcytosine

What was measured:
E-selectin = E-selectin cell surface protein expression by flow cytometry in HUVEC; assay type: cell-based, human; details: for time of maximal E-selectin protein expression: after addition of TNF-α
Method: (§1) HUVEC (Clonetics, San Diego, Calif.) were cultivated in endothelial basal media supplemented with 10% fetal bovine serum. Cells were treated with oligonucleotides as described previously (Chiang, 1991, J. Biol. Chem. 27:18162-18171; Vickers, 2000, Nucleic Acids Res. 28:1340-1347). Briefly, cells were incubated with a mixture of Lipofectin (Gibco BRL, Gaithersburg, Md.) and oligonucleotide for 4 hours. Cells were incubated for 2-24 hours, then treated with 5 ng/ml TNF-α for 2-3 hours to induce expression of E-selectin. Cells were then washed extensively with phosphate buffered saline (PBS), fresh complete media was added and cells were incubated at 37° C. until harvested.
Following oligonucleotide treatment, cells were detached with D-PBS (without calcium and magnesium) supplemented with 4 mM EDTA. Cells were centrifuged at 5,000 rpm for 1 minute and washed in 2% bovine serum albumin (BSA), 0.2% sodium azide in D-PBS at 4° C. E-selectin-phycoerythrin antibody (Ancell) was then added at 1:100 in 0.1 ml of the above buffer, and incubated for 30 min at 4° C. in the dark. Cells were washed again as above and resuspended in 0.3 ml of PBS buffer with 0.5% formaldehyde. Cells were analyzed for E-selectin expression on a FACScan (Becton-Dickinson). Results are expressed as percentage of control expression based upon the mean fluorescence intensity.
The treated cells were stimulated with TNF-α for 2 hours, then analyzed for E-selectin protein expression by flow cytometry. […] Results at the protein level are not as dramatic as at the RNA level due to the fact that the Type III message remains the predominant RNA species present (FIG. 2). Any change in protein stability resulting from the presence of the type I/II message would likely be partially masked by the more abundant Type III RNA.

Human IL-5 receptorα = Human IL-5 receptorα protein expression on the cell surface (36 hr), TF-1 cells; assay type: cell-based; set-up: % INHIB, human IL-5 receptorα protein on the cell surface / % of CONTROL, human IL-5 receptorα protein on the cell surface: concentration or dose not given beside the values; details: 36 hr
Source text: (§2) A series of oligonucleotides were designed to target various splice sites or (intron-exon boundaries) in the IL-5 receptor mRNA.
ISIS 16746, 16748, 16755 and 16758 inhibited human IL-5 receptorα protein by over 50% in this assay and are therefore preferred. ISIS 16758 and 16755 were chosen for further study.

[1] = tested on: Human IL-5 receptorα membrane form mRNA; assay: Human IL-5 receptorα membrane form mRNA expression (18 hr); assay type: cell-based; set-up: % INHIB'N, human IL-5 receptorα membrane form mRNA / % of CONTROL, human IL-5 receptorα membrane form mRNA: concentration or dose not given beside the values; details: 18 hr
Source text: mRNA transcripts encoding the membrane form of the human IL-5 receptorα contain exons 1-10 and 12-14. Exon 11 is spliced out. It is, therefore, possible to target sequences in exons 1-10 which are common to both soluble and membrane forms of the receptor, or to selectively target sequences only present in the membrane form (exons 12-14). Oligonucleotides were also designed to target various intron/exon boundaries downstream of exon 11, with the intention of preventing successful splicing out of exon 11 and thus redirecting splice products away from the membrane form and in favor of the soluble form of IL-5 receptorα.
as §2

[2] = tested on: Human IL-5 receptorα soluble form mRNA; assay: Human IL-5 receptorα soluble form transcript, Northern blot; assay type: cell-based; details: Northern blot analysis
Source text: ISIS 16746, 16748 and 16755 inhibited IL-5 receptor mRNA expression by over 50% and are therefore preferred in this assay. […] Thus it is believed that ISIS 16755 redirects splicing in favor of the membrane form, as is consistent with data obtained with other non-RNAse H (e.g., uniform 2′-methoxyethoxy) oligonucleotides targeted to splice sites.

E-selectin mRNA [3] = assay: Non-quantitative RT-PCR of E-selectin Type I, II and III transcripts in HUVEC; assay type: cell-based, human; details: relative to untreated cells, 200 nM stated for ISIS 106344
Method: (§3) Total RNA was harvested from HUVEC at various times following TNF-α induction using a ToTALLY RNA kit (Ambion) according to the manufacturer's protocol). For Northern blots, RNA was separated on a 1.2% agarose gel containing 1.1% formaldehyde, then transferred to nylon membranes. Blots were hybridized with [^32P]-dCTP random prime labeled cDNA probes specific for E-selectin or […] (G3PDH) for 2 hours in Rapid-hyb solution (Amersham). Blots were washed with 2×SSC containing 0.1% SDS at room temperature, followed by 0.1×SSC containing 0.1% SDS at 60° C. Quantitation of RNA expression was performed using a Molecular Dynamics PhosphorImager. Anchored reverse transcriptase polymerase chain reaction (RT/PCR) was performed essentially as described by Chu et al. (supra.).
To determine if processing could be controlled more specifically, oligonucleotides were also designed to the upstream polyadenylation signals. Non-quantitative RT-PCR was used to distinguish among the three forms of the message. In the absence of oligonucleotide, all three types of transcript were detected. […] This difference may be due to variation in the efficiency of PCR amplification on the varying length products, with the shorter Type I and II messages being more efficiently amplified than the Type III product. […] To determine if the effects of ISIS 106344 were unique, antisense oligonucleotides were designed to the Type I and Type II polyadenylation sites.
To evaluate whether treatment with two oligonucleotides would result in the production of a single species of E-selectin message, HUVEC were treated with ISIS 106344, and either ISIS 135568 or ISIS 135570 (150 nM each). […] Cells were also treated with both ISIS 135568 and ISIS 135570.

E-selectin mRNA [4] = assay: Stability of E-selectin messages after TNF-α removal (Northern blot, HUVEC); assay type: cell-based, human; details: 200 nM
Method: as §1
as §3, with “Anchored reverse transcriptase polymerase chain reaction (RT/PCR) was performed essentially as described by Chu et al. (supra.).” left out

[5] = tested on: E-selectin mRNA (Type III polyadenylation signal and site); assay: E-selectin transcript forms by Northern blot in TNF-α-induced HUVEC; assay type: cell-based, human; details: increasing oligonucleotide dose, TNF-α 2 hours
Method: as §1, §3
HUVEC were treated with 2′-O-methoxyethyl (MOE)/phosphorothioate antisense oligonucleotides directed to the Type III polyadenylation signal and site (Table 1A) as described above. After about 24 hours, cells were treated with TNF-α to induce E-selectin expression. Cells were harvested after 2 hours and RNA was isolated. E-selectin expression was analyzed by Northern blotting. […] With increasing oligonucleotide dose, the longer Type III message decreased while a shorter message increased (FIG. 2). This shorter message most likely represents a combination of Type I and II messages, because the Type II message is just 158 bases longer than the Type I message, and the difference in sizes cannot be resolved on the gel which was used.

murine bcl-x mRNA [6] = assay: bcl-xs mRNA expression in vivo in mouse liver; details: preliminary experiments
Source text: (§4) ISIS 22783 is also fully complementary to the murine bcl-x mRNA which makes it useful for animal studies.

murine bcl-x mRNA [7] = assay: bcl-xs mRNA induction in mouse cell lines bEND, AML12 and Hepa; assay type: cell-based
Source text: as §4

bax mRNA = bax mRNA by RNAse protection assay; assay type: cell-based
Method: ISIS 22783 was tested by RNAse protection assay for ability to inhibit bax, another apoptotic gene. It had no effect on bax mRNA levels.

A549 cells [8] = assay: Sensitization of A549 cells to cisplatinum-induced cell death, propidium iodide staining; assay type: cell-based, human; details: 100 nM oligo
Method: A549 cells were treated with 100 nM ISIS 22783 or the 5-mismatch ISIS 26080 and cisplatinum at various doses. The percent apoptotic cells was quantitated by propidium iodide staining according to standard methods.

A549 cells [9] = assay: Sensitization of A549 cells to UV-induced cell death, propidium iodide staining; assay type: cell-based, human; details: 100 nM oligo
Method: A549 cells were treated with 100 nM ISIS 22783 or the 5-mismatch ISIS 26080 and exposed to ultraviolet (UV) radiation. The percent apoptotic cells was quantitated by propidium iodide staining according to standard methods.

A549 cells [10] = assay: Sensitization of A549 cells to taxol-induced cell death, propidium iodide staining; assay type: cell-based, human; details: 100 nM oligo
Method: A549 cells were treated with 100 nM ISIS 22783 or the 5-mismatch ISIS 26080 and taxol at various doses. The percent apoptotic cells was quantitated by propidium iodide staining according to standard methods.

human bcl-x mRNA [11] = assay: Total bcl-x mRNA and bcl-xs/bcl-xl ratio in A549 cells, RNase protection; assay type: cell-based
Source text: In accordance with the present invention, a series of oligonucleotides were designed to target different regions of human bcl-x RNA, using published sequences (Boise, L. H., et al., 1993, Cell 74, 597-608; Genbank Accession No. L20121, locus name “HSBCLXL,” incorporated herein as SEQ ID NO: 39). Antisense oligonucleotides were designed to target areas of exon 1 and exon 2 of human bcl-x, particularly around the exon 1/exon 2 splice site and in sequence regions present in bcl-xl but not in bcl-xs. All backbone linkages are phosphorothioates; All 2′MOE cytosines are 5-methylcytosines.
Oligonucleotides were evaluated for their respective effects on bcl-xs and bcl-xl3 mRNA levels in A549 cells along with total bcl-x mRNA levels, using the RIBOQUANT™ RNase protection kit (Pharmingen, San Diego Calif.). All assays were performed according to manufacturer's protocols.
A “walk” was done in this region with 20mer 2′-MOE phosphorothioate oligonucleotides targeted to sequences whose 5′ ends were 24, 26, 29, 31, 33, 37, 39, 41, 43, 44, 45 and 47 bases upstream of the splice site. These oligonucleotides were screened as before at a dose of 200 nM oligonucleotide for effect on short and long bcl-x transcripts.

human bcl-x mRNA [12] = assay: as above; assay type: cell-based; remark: listed apart in the source

## ISIS 106346: CATCAGAACTTATATAGTCA, SEQ ID 68; 106344 mismatch control (all 2'-MOE, all phosphorothioate, methylation of C not given here) [reference compound]
E-selectin
  time of maximal E-selectin protein expression: four hours after addition of TNF-α

## ISIS 16755: GAACACTTACATTTTACAGA, SEQ ID 34; E12/I12; 2′-MOE pattern not visible (antisense eG*eA*eA*e[5mC]*eA*e[5mC]*eT*eT*eA*e[5mC]*eA*eT*eT*eT*eT*eA*e[5mC]*eA*eG*eA)
Human IL-5 receptorα
  % INHIB, human IL-5 receptorα protein on the cell surface: over 50%
[1]
  % INHIB'N, human IL-5 receptorα membrane form mRNA: over 50%
[2]
  inhibition of the soluble form transcript: without significantly inhibiting the soluble form

## ISIS 106344: CATAAGCACATTTATTGTCA, SEQ ID 66; uniformly 2′-MOE phosphorothioate; E-selectin Type III poly(A) signal (all 2'-MOE, all phosphorothioate, methylation of C not given here)
E-selectin mRNA [3]
  Type I E-selectin message (RT-PCR): increased
  Type II E-selectin message (RT-PCR): increased
  Type III E-selectin message (RT-PCR): decrease
E-selectin mRNA [4]
  stability of the shorter (type I/II) messages following TNF-α removal: More than half of the shorter messages remained five hours
E-selectin mRNA [4]; message printed as type II
  time following TNF-α removal at which about one half of the type II message remained: ~2.5 h
E-selectin; TNF-α 2 hours, versus control oligonucleotide
  duration of E-selectin protein expression: sustained expression of E-selectin protein
E-selectin
  time of maximal E-selectin protein expression: four hours after addition of TNF-α
[5]
  longer Type III E-selectin message (Northern blot): decreased
  shorter E-selectin message (Type I and II) (Northern blot): increased

## ISIS 22783: CTGGATCCAAGGCTCTAGGT, SEQ ID 44; fully 2′-MOE, full-phosphorothioate; bcl-xl Exon 1L 664-683 (e[5mC]*eT*eG*eG*eA*eT*e[5mC]*e[5mC]*eA*eA*eG*eG*e[5mC]*eT*e[5mC]*eT*eA*eG*eG*eT)
Murine bcl-x mRNA [6]
  bcl-xs mRNA expression in mouse liver: slight induction of bcl-xs mRNA expression
Murine bcl-x mRNA [7]
  induction of bcl-xs mRNA: induction of bcl-xs mRNA
Bax mRNA
  effect on bax mRNA levels: no effect
A549 cells [8]; cisplatinum 0 μg/ml
  % Apoptotic cells (approx): ~3%
A549 cells [8]; cisplatinum 1 μg/ml
  % Apoptotic cells (approx): ~6%
A549 cells [8]; cisplatinum 10 μg/ml
  % Apoptotic cells (approx): ~13%
A549 cells [8]; cisplatinum 50 μg/ml
  % Apoptotic cells (approx): ~27%
A549 cells [9]; UV 0 mJ/M^2
  % Apoptotic cells (approx): ~2%
A549 cells [9]; UV 50 mJ/M^2
  % Apoptotic cells (approx): ~4%
A549 cells [9]; UV 100 mJ/M^2
  % Apoptotic cells (approx): ~33%
A549 cells [9]; UV 200 mJ/M^2
  % Apoptotic cells (approx): ~27%
A549 cells [10]; taxol 0 μg/ml
  % Apoptotic cells (approx): ~8%
A549 cells [10]; taxol 5 μg/ml
  % Apoptotic cells (approx): ~8%
A549 cells [10]; taxol 10 μg/ml
  % Apoptotic cells (approx): ~15%
A549 cells [10]; taxol 30 μg/ml
  % Apoptotic cells (approx): ~26%
Human bcl-x mRNA [11]; A549 cells
  time after treatment at which bcl-xs induction with concurrent bcl-xL reduction begins: 2 to 4 h
Human bcl-x mRNA [11]; A549 cells (Table 13)
  % CRTL total bcl-x: without reducing the total bcl-x mRNA level
Human bcl-x mRNA [11]; A549 cells, no oligo 17.56
  bcl-xs/bcl-xl (%): 293%
Human bcl-x mRNA [11]; Oligo Concentration 200 (unit not given)
  approx. ratio of bcl-xs/bcl-xl: ~8.5
Human bcl-x mRNA [12]; Oligo Concentration 100 (unit not given)
  approx. ratio of bcl-xs/bcl-xl: ~4.5
Human bcl-x mRNA [12]; Oligo Concentration 400 (unit not given)
  approx. ratio of bcl-xs/bcl-xl: ~18
